Experimental data reported in publication PMC10763817, “Development of dual enzyme responsive molecular AND logic gate” (Turkish Journal of Chemistry, 2021).

Test system: T1, tyrosinase (mushroom tyrosinase, EC 1.14.18.1)
T1 construct: gene PPO3; commercial native enzyme from mushroom (Sigma)
Assay: fluorescence of released resorufin (ex […] nm, em […] nm), Lineweaver-Burk plot
Assay type: biochemical
Settings: tyrosinase 3 U/mL alone, no esterase; 10-50 μM compound 2; PBS pH 7.4, 37 °C

Km: 44.3 µM
Compound: CC(=O)Oc1cccc(COc2ccc3nc4ccc(=O)cc-4oc3c2)c1 [compound 2, 3-(((3-oxo-3H-phenoxazin-7-yl)oxy)methyl)phenyl acetate]
